Laboratory results published in PubChem BioAssay (NCI).
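Protocol summary: plate cells (96-well), add compound at 5 concentrations, incubate 48 h, interpolate endpoints linearly. GI50 is the concentration that inhibits growth by half. The concentration for full growth arrest is given as TGI.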

Assays:
Assay in all cases: DTP human tumour cell line panel, 48 h
[1] = system: 786-0 renal
[2] = system: COLO 205 colon
[3] = system: HOP-92 NSCLC
[4] = system: HT29 colon
[5] = system: KM12 colon
[6] = system: LOX IMVI melanoma
[7] = system: OVCAR-4 ovarian
[8] = system: SK-MEL-28 melanoma
[9] = system: SK-MEL-5 melanoma
[10] = system: DU-145 prostate

| SMILES | GI50 [1] [µM] | TGI [1] [µM] | GI50 [2] [µM] | TGI [2] [µM] | GI50 [3] [µM] | TGI [3] [µM] | GI50 [4] [µM] | TGI [4] [µM] | GI50 [5] [µM] | TGI [5] [µM] | GI50 [6] [µM] | TGI [6] [µM] | GI50 [7] [µM] | TGI [7] [µM] | GI50 [8] [µM] | TGI [8] [µM] | GI50 [9] [µM] | TGI [9] [µM] | TGI [10] [µM] | GI50 [10] [µM] |
| --- | --- | --- | --- | --- | --- | --- | --- | --- | --- | --- | --- | --- | --- | --- | --- | --- | --- | --- | --- | --- |
| C[C@@H](Oc1cc(-n2cnc3ccc(OC[C@@H](O)CO)cc32)sc1C(N)=O)c1ccccc1Cl | 0.669 | > 25 | 0.0743 | > 25 | 0.765 | > 16.4 | 0.0798 | > 25 | 0.0641 | > 25 | 0.0931 | > 25 | 4.15 | > 25 | 0.229 | > 25 | 0.326 | 5.14 |  |  |
| O=[N+]([O-])c1cc2c([N+](=O)[O-])cccc2o1 |  | 5.92 |  | 16.5 |  | 36 |  | 66.6 |  | 34.5 |  | > 100 |  | 3.63 |  | 16.8 |  | 33.2 | 42 |  |
| CCOC(=O)CNc1nnnn1C1OC(CO)C(O)C1O (centres undefined) |  | > 100 |  | > 100 |  |  |  | > 100 |  | > 100 |  | > 100 |  |  |  |  |  | > 100 |  |  |
| C=C(CCCO)[C@@H]1CC[C@@](C)(O)[C@H]1C |  | > 100 |  | > 100 |  |  |  | > 100 |  | > 100 |  |  |  | > 100 |  | > 100 |  | > 100 |  |  |
| COc1cc(/C=C2\C[C@H]3[C@@H]4CC=C5C[C@@H](OC(C)=O)CC[C@]5(C)[C@H]4CC[C@]3(C)[C@H]2OC(C)=O)ccc1OCCN1CCCC1 | 8.82 | 18.3 | 13.3 | > 50 | 5.45 | 13.4 | 11.7 | > 50 | 8.81 | 17.7 |  |  |  |  | 12.8 | > 50 | 6.97 | 15.1 | 9.69 | 1.3 |
| O=C(O[C@H]1CCN2C[C@H]3C[C@H](CN4C(=O)CCC[C@H]34)[C@@H]2C1)c1ccc(O)cc1 |  | > 100 |  | > 100 |  | > 100 |  | > 100 |  | > 100 |  | > 100 |  | > 100 |  | > 100 |  |  | > 100 |  |
| O=c1c(Cl)cc2nc3ccccc3sc-2c1Cl |  | 45.8 |  | 38 |  |  |  | 49.2 |  | 38.4 |  | 43 |  | 27.4 |  | 35.2 |  | 13.9 | 25.8 |  |
| CCN(CC)CCNc1ccc2nc(C)n3c4ccc(O)cc4c(=O)c1c23 |  | 10.4 |  |  |  |  |  | 1.57 |  | 17.4 |  | 2.04 |  | 3.87 |  | 11.3 |  | 15.6 |  |  |
| Cc1ccc2nc(NC(=O)/C(=N\NC(=S)NN)C3C(=O)NC(=S)NC3=O)sc2c1 |  | > 100 |  | > 100 |  | > 100 |  | > 100 |  | > 100 |  | > 100 |  | > 100 |  | > 100 |  | > 100 |  |  |
| COC[C@H](C)N=CN1CCc2ccccc2C1(Cc1ccccc1)Cc1ccccc1 |  | 30.3 |  | 34.6 |  | 29.8 |  | 20.1 |  | 27.3 |  |  |  | 35.6 |  | 23.6 |  | > 100 |  |  |
| Cn1cnc([N+](=O)[O-])c1Sc1nccc(=O)[nH]1 |  | > 100 |  | > 100 |  | > 100 |  | > 100 |  | > 100 |  | > 100 |  | > 100 |  | > 100 |  | > 100 |  |  |
| Cc1ccc(NC(=O)OCC(COc2ccc(Cl)cc2Cl)OC(=O)Nc2ccc(C)cc2)cc1 (centres undefined) |  | > 100 |  | > 100 |  | > 100 |  | > 100 |  | > 100 |  |  |  | > 100 |  | > 100 |  |  |  |  |
| CCN(CC)CCn1c2ccccc2c(=O)c2c(OC)ccc(OC)c21 |  | > 100 |  | > 100 |  | > 100 |  | > 100 |  | > 100 |  | > 100 |  | > 100 |  |  |  |  |  |  |
| C=CCN(N=O)C(=O)NCCCCC(NC(C)=O)C(=O)NCc1ccccc1 (centres undefined) |  | > 100 |  | > 100 |  | > 100 |  | > 100 |  | > 100 |  | > 100 |  | > 100 |  | > 100 |  | > 100 |  |  |
| COC1=CC(=O)c2nc(Cl)ccc2C1=O | 2.02 | 3.76 | 2.31 | 4.98 |  |  | 2.21 | 4.74 | 2.11 | 4.82 | 1.38 | 2.8 | 1.5 | 2.83 | 1.88 | 3.47 | 1.66 | 3.02 | 3.01 | 1.65 |
| CC1C2CC=CC(=O)[C@@]2(C)CCC12OCCO2 (some centres undefined) |  | > 100 |  |  |  | > 100 |  | > 100 |  | > 100 |  |  |  | > 100 |  | > 100 |  | 65.4 |  |  |
| COc1ccc2nc(NC(=O)C(=O)NNC(=O)c3ccncc3)sc2c1 |  | > 100 |  | > 100 |  | > 100 |  | > 100 |  |  |  | > 100 |  | > 100 |  | > 100 |  | > 100 |  |  |
| CCOCc1cc(=O)c2c(OC)cc3c(c2o1)CCC(C)(C)O3 |  | > 100 |  |  |  | > 100 |  | > 100 |  | > 100 |  | > 100 |  | > 100 |  | > 100 |  | > 100 |  |  |
| CC(C)C1N2CCCCC2[C@@H]2c3[nH]c4ccccc4c3CCN12 (some centres undefined) |  | > 100 |  | > 100 |  | > 100 |  | > 100 |  |  |  |  |  | > 100 |  | > 100 |  | > 100 |  |  |
| Cn1c2ccccc2c2c(=O)n(CCCC(=O)OC(=NC3CCCCC3)NC3CCCCC3)c3c(-c4ccccc4)nnn3c21 | > 100 | > 100 | > 100 | > 100 |  |  | > 100 | > 100 | > 100 | > 100 | > 100 | > 100 | 38 | > 100 | > 100 | > 100 | > 100 | > 100 | > 100 | > 100 |
| CCOC(=O)C(=O)Nc1ccccc1C(C)C |  | > 100 |  | > 100 |  | > 100 |  | > 100 |  | > 100 |  |  |  | > 100 |  | > 100 |  | > 100 |  |  |
| O=C1NC(c2cccc(OCc3ccccc3)c2)Nc2ccccc21 (centres undefined) |  | 38.8 |  | 2.64 |  | > 100 |  | 0.239 |  | 73.9 |  | 17.5 |  | > 100 |  | > 85.7 |  | 1.87 |  |  |
